Measured values from US4820834A, “Benzodiazepine analogs” (priority 1987, dated 1989).
Where two headings read alike, the source gives them in different places.

Tests used:
[1] = target: T1, Gastrin receptor (gastric glands) (Cavia porcellus, UniProt H0VZC5); test: Gastrin Receptor Binding in Guinea Pig Gastric Glands; set-up: species or system guinea pig (male Hartley); settings: 25° C., 30 minutes
T1 construct: The washed guinea pig gastric glands prepared as above were resuspended; from tissue; host or cells: guinea pig gastric mucosal glands (male Hartley)
T1 sequence (H0VZC5 1-426): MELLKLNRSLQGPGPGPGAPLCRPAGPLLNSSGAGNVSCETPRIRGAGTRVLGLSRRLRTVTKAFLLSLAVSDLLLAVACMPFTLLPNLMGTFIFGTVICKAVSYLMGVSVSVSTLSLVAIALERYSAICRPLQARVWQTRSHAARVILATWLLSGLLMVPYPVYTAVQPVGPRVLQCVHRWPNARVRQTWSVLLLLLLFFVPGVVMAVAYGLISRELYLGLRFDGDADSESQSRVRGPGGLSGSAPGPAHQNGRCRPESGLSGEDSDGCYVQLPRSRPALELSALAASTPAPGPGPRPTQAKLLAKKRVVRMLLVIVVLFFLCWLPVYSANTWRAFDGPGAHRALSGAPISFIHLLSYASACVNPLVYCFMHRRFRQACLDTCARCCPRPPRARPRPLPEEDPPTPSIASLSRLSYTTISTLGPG

[2] = target: T2, CCK receptor (brain, cerebral cortex) (Cavia porcellus, UniProt H0VZC5); test: biochemical; format: binding, Male Hartley guinea pigs; settings: guinea pig cerebral cortex, ^125 I-CCK-33, 25° C., 2 hours
T2 construct: Cerebral cortex was dissected and used as a receptor source; from tissue; host or cells: guinea pig cerebral cortex membranes (male Hartley)
T2 sequence (H0VZC5 1-426): T1 sequence (H0VZC5 1-426)
How it was run: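 Guinea pig cerebral cortex homogenate as receptor source, with radiolabeled CCK-33 in HEPES buffer containing MgCl2, bacitracin, EGTA and 0.4% BSA. Incubation 2 h at 25°C; bound ligand pelleted by centrifugation and gamma-counted.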

[3] = target: T3, CCK receptor (pancreas) (Rattus norvegicus, UniProt P30551); test: CCK Receptor Binding (Pancreas): inhibition of ^125 I-CCK-33 binding; set-up: species or system Male Sprague-Dawley rats; settings: rat pancreas membranes, ^125 I-CCK-33, 37° C., 30 minutes
T3 construct: The whole pancreas was dissected free of fat tissue and was homogenized; from tissue; host or cells: rat pancreas membranes (Sprague-Dawley)
T3 sequence (P30551 1-444): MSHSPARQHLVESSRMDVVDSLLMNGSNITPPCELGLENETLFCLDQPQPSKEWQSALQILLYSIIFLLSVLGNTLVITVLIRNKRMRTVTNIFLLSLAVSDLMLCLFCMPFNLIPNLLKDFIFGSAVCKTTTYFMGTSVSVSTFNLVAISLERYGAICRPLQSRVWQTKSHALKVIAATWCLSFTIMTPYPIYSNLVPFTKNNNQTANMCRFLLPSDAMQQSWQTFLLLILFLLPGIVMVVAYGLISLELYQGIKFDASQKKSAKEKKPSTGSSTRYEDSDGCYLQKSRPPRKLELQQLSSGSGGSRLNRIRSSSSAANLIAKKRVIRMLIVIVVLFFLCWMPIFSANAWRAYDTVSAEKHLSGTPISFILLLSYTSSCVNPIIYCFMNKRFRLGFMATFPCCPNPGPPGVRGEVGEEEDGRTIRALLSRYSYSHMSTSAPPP
How it was run: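 Rat (male Sprague-Dawley) pancreatic membranes in 50 mM Tris HCl pH 7.7 with DTT, bacitracin, PMSF and o-phenanthroline; ^125I-Bolton Hunter-labelled CCK-33 as radioligand. Incubation 30 min at 37° C, separation by centrifugation, pellet gamma-counted; Scatchard analysis by diluting ^125I-CCK-33 with increasing CCK-33.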

[4] = ^125 I-gastrin, read-out: IC50 ^125 I-Gastrin Gastric Glands
[5] = read-out: IC50 ^125 I-CCK Pancreas
[6] = read-out: IC50 ^125 I-CCK Brain
[7] = IC50 ^125 I-Gastrin Gastric Glands

Row | SMILES | IC50 [1, 4] | IC50 ([2]; IC50 ^125 I-CCK Brain) | IC50 [3, 5] | IC50 [2, 6] | IC50 ([3]; IC50 ^125 I-CCK Pancreas) | IC50 [1, 7]
1 | COc1cccc(NC(=O)N[C@H]2N=C(c3ccccc3)c3ccccc3N(C)C2=O)c1 [Example 267, (S)-N-(2,3-Dihydro-1-methyl-2-oxo-5-phenyl-1H-1,4-benzodiazepin-3-yl)-N'-(3-methoxyphenyl)-urea] | 190 nM | 290 nM | 1.3 nM | – | – | –
2 | COc1cccc(CC(=O)N[C@H]2N=C(c3ccccc3)c3ccccc3N(C)C2=O)c1 [Example 268, (S)-N-(2,3-Dihydro-1-methyl-2-oxo-5-phenyl-1H-1,4-benzodiazepin-3-yl)-3-methoxybenzeneacetamide] | 420 nM | – | – | 2100 nM | 330 nM | –
3 | COc1cccc(CC(=O)N[C@@H]2N=C(c3ccccc3)c3ccccc3N(C)C2=O)c1 [Example 269, (R)-N-(2,3-Dihydro-1-methyl-2-oxo-5-phenyl-1H-1,4-benzodiazepin-3-yl)-3-methoxybenzenacetamide] | 450 nM | – | – | 690 nM | 45000 nM | –
4 | CN1C(=O)C(NC(=O)Nc2ccccc2[N+](=O)[O-])N=C(c2ccccc2)c2ccccc21 (stereo not drawn) [Example 270, N-(2,3-Dihydro-1-methyl-2-oxo-5-phenyl-1H-1,4-benzodiazepin-3-yl)-N'-(2-nitrophenyl)-urea] | – | 1200 nM | 3 nM | – | – | 500 nM
5 | CN1C(=O)C(NC(=O)Nc2cccc(F)c2)N=C(c2ccccc2)c2ccccc21 (stereo not drawn) [Example 271, N-(2,3-Dihydro-1-methyl-2-oxo-5-phenyl-1H-1,4-benzodiazepin-3-yl)-N'-(3-fluorophenyl)-urea] | – | 54 nM | 10 nM | – | – | 10 nM
6 | CN1C(=O)C(NC(=O)Nc2cccc(Br)c2)N=C(c2ccccc2)c2ccccc21 (stereo not drawn) [Example 272, N-(3-Bromophenyl)-N'-(2,3-dihydro-1-methyl-2-oxo-5-phenyl-1H-1,4-benzodiazepin-3-yl)-urea] | – | 5 nM | 4.4 nM | – | – | 2.8 nM
7 | CN1C(=O)C(NC(=O)Nc2cccc3ccccc23)N=C(c2ccccc2)c2ccccc21 (stereo not drawn) [Example 273, N-(2,3-Dihydro-1-methyl-2-oxo-5-phenyl-1H-1,4-benzodiazepin-3-yl)-N'-1-naphthalenyl-urea] | 57 nM | – | – | 79 nM | 8.6 nM | –
8 | COc1cc(NC(=O)NC2N=C(c3ccccc3)c3ccccc3N(C)C2=O)cc(OC)c1 (stereo not drawn) [Example 274] | 1600 nM | – | 310 nM | 2300 nM | – | –
9 | COc1cccc(NC(=O)NC2N=C(c3ccccc3)c3ccccc3NC2=O)c1 (stereo not drawn) [Example 275, N-(2,3-Dihydro-2-oxo-5-phenyl-1H-1,4-benzodiazepin-3-yl)-N'-(3-methoxyphenyl)-urea] | – | 110 nM | – | – | 20 nM | 120 nM
10 | CN1C(=O)[C@@H](NC(=O)Nc2ccccc2Cl)N=C(c2ccccc2)c2ccccc21 [Example 276, (S)-N-(2,3-Dihydro-1-methyl-2-oxo-5-phenyl-1H-1,4-benzodiazepin-3-yl)-N'-(2-chlorophenyl)-urea] | 240 nM | – | – | 280 nM | 0.39 nM | –
11 | CN1C(=O)C(NC(=S)Nc2ccccc2)N=C(c2ccccc2)c2ccccc21 (stereo not drawn) [Example 277, N-(2,3-Dihydro-1-methyl-2-oxo-5-phenyl-1H-1,4-benzodiazepin-3-yl)-N'-phenylthiourea] | 2600 nM | – | – | 860 nM | 18 nM | –
12 | COc1ccccc1NC(=O)NC1N=C(c2ccccc2)c2ccccc2N(C)C1=O (stereo not drawn) [Example 278, N-(2,3-Dihydro-1-methyl-2-oxo-5-phenyl-1H-1,4-benzodiazepin-3-yl)-N'-(2-methoxyphenyl)-urea] | 1000 nM | – | 600 nM | 1200 nM | – | –
13 | CC(C)(C)C(=O)OCOC(=O)CN1C(=O)C(NC(=O)c2cc3ccccc3[nH]2)N=C(c2ccccc2)c2ccccc21 (stereo not drawn) [Example 279, 1-Pivaloyloxymethyloxycarbonylmethyl-1,3-dihydro-3-(2-indolecarbonylamino)-5-phenyl-2H-1,4-benzodiazepin-2-one] | 600 nM | – | – | 310 nM | 11 nM | –
14 | COc1cccc(NC(=O)NC2N=C(c3ccccc3)c3ccccc3NC2=S)c1 (stereo not drawn) [Example 280, N-(2,3-Dihydro-5-phenyl-2-thioxo-1H-1,4-benzodiazepin-3-yl)-N'-(3-methoxyphenyl)-urea] | – | 970 nM | – | – | 15 nM | 250 nM
15 | CN1C(=O)[C@H](NC(=O)Nc2cccc(Br)c2)N=C(c2ccccc2)c2ccccc21 [Example 282, (R)-N-(2,3-Dihydro-1-methyl-2-oxo-5-phenyl-1H-1,4-benzodiazepin-3-yl)-N'-(3-bromophenyl)-urea] | – | 3.8 nM | 840 nM | – | – | 1.6 nM
16 | COc1cccc(NC(=O)NC2N=C(c3ccccc3)c3ccccc3N(CC(=O)N3CCCC3)C2=O)c1 (stereo not drawn) [Example 284, 1-{[3-[(((3-Methoxyphenyl)amino)carbonyl)amino]-2,3-dihydro-2-oxo-5-phenyl-1H-1,4-benzodiazepin-1-yl]acetyl}pyrrolidine] | – | 0.34 nM | – | – | 17 nM | 0.5 nM
17 | CCN(CC)C(=O)CN1C(=O)C(NC(=O)Nc2cccc(OC)c2)N=C(c2ccccc2)c2ccccc21 (stereo not drawn) [Example 285, 3-{[((3-Methoxyphenyl)amino)carbonyl)amino]-N,N-diethyl-2,3-dihydro-2-oxo-5-phenyl-1H-1,4-benzodiazepin-1-acetamide] | 0.26 nM | – | – | 0.22 nM | > 100 nM | –
18 | CCN(CC)C(=O)CN1C(=O)C(NC(=O)Nc2ccccc2Cl)N=C(c2ccccc2)c2ccccc21 (stereo not drawn) [Example 286, 3-{[((2-Chlorophenyl)amino)carbonyl]amino}-N,N-diethyl-2,3-dihydro-2-oxo-5-phenyl-1H-1,4-benzodiazepine-1-acetamide] | 1.5 nM | – | – | 3.8 nM | > 100 nM | –
19 | Cc1cccc2c1NC(=O)C(NC(=O)c1cc3ccccc3[nH]1)N=C2c1ccccc1 (stereo not drawn) [Example 287, 3-N-(2,3-Dihydro-9-methyl-2-oxo-5-phenyl-1H-1,4-benzodiazeoin-3-yl)-1H-indole-2-carboxamide] | 950 nM | – | – | 1000 nM | 0.74 nM | –
20 | COc1cccc(NC(=O)NC2N=C(c3ccccc3)c3cccc(C)c3NC2=O)c1 (stereo not drawn) [Example 288, N-(3-Methoxyphenyl)-N'-(2,3-dihydro-9-methyl-2-oxo-5-phenyl-1H-1,4-benzodiazepin-3-yl)-urea] | 54 nM | – | – | 42 nM | 75 nM | –
21 | Cc1cccc2c1N(C)C(=O)C(NC(=O)c1cc3ccccc3[nH]1)N=C2c1ccccc1 (stereo not drawn) [Example 289, 3-N-(2,3-Dihydro-1,9-dimethyl-2-oxo-5-phenyl-1H-1,4-benzodiazepin-3-yl)-1H-indole-2-carboxamide] | 660 nM | – | – | 89 nM | 0.1 nM | –
22 | COc1cccc(NC(=O)NC2N=C(c3ccccc3)c3cccc(C)c3N(C)C2=O)c1 (stereo not drawn) [Example 290, N-(3-Methoxyphenyl)-N'-(2,3-dihydro-1,9-dimethyl-2-oxo-5-phenyl-1H-1,4-benzodiazepin-3-yl)-urea] | 8.7 nM | – | – | 15 nM | 2 nM | –
23 | Cc1ccc(C2=NC(NC(=O)c3cc4ccccc4[nH]3)C(=O)N(C)c3ccccc32)cc1 (stereo not drawn) [Example 291, 3-N-(2,3-Dihydro-1-methyl-2-oxo-5-(p-tolyl)-1H-1,4-benzodiazepin-3-yl)-1H-indole-2-carboxamide] | 710 nM | – | – | 380 nM | 0.08 nM | –
24 | COc1cccc(NC(=O)NC2N=C(c3ccc(C)cc3)c3ccccc3N(C)C2=O)c1 (stereo not drawn) [Example 292, N-(3-Methoxyphenyl)-N'-(2,3-dihydro-1-methyl-2-oxo-5-(p-tolyl)-1H-1,4-benzodiazepin-3-yl)-urea] | 11.5 nM | – | – | 3.5 nM | 1 nM | –
